Assays:
[1] = system: p38 (pThr180/pTyr182); test: MILLIPLEX MAP 9-Plex, p38 active form in A431 lysates; assay type: cell-based, human; settings: 10 μM; for p38 (pThr180/pTyr182) fluorescence intensity: A431 cell lysates, M ± mx, control 567.7 ± 266.6; for p38 (pThr180/pTyr182) fluorescence intensity / increase of fluorescence intensity of the active form p38: 1 h; for increase of fluorescence intensity of the active form p38 / activation of signaling pathway p38 (pThr180/pTyr182), in words: A431 cells; for increase of fluorescence intensity of the active form p38: versus control
Text: (§1) We used the MILLIPLEX MAP Multi-Pathway Magnetic Bead 9-Plex-Cell Signaling Multiplex Assay, which allows the simultaneous detection of nine phosphorylated proteins that are markers of the main intracellular signaling pathways (phosphorylation site is indicated in parentheses), a universal transcription factor that controls the expression of immune response genes; apoptosis and cell cycle NFκB (pS536); cAMP-dependent transcription factor (CREB (pS133); mitogen-activated kinase p38 (pT180/pY182); stress-activated protein kinase JNK (pT183/pY185); ribosomal […]; transcription factors STAT3 (pS727) and STAT5A/B (pY694/699); protein kinase B (Akt) (pS473); and kinase regulated by extracellular signals ERK1/2 (pT185/pY187).
(§2) The effect of various concentrations of PPA derivatives on the cell culture was studied using xCelligence RTCA equipment (AceaBioscience, San Diego, CA, USA). The concentration closest to the IC50 (10 μM) was chosen as the experimental concentration. The selected concentration of phaeosphaeride A derivatives allows for the assessment of the early effect of compounds on cells and compares their effectiveness. In this experiment, the signaling pathways Akt (pSer473), p70S6K (pThr412), NFkB (p65-pSer536), and CREB (pSer133) were not activated (Table 8). The stress-activated signaling pathways ERK/MAP kinase 1/2 (pThr185/pTyr187), JNK (pThr183/pTyr185), and p38 (pThr180/pTyr182) were activated for these compounds.
(§3) We used a MILLIPLEX MAP Multi-Pathway Magnetic Bead 9-Plex-Cell Signaling Multiplex Assay kit (Merck/Millipore), according to the manufacturer’s protocol. A431 cells were cultured in DMEM with 10% FBS in 24-well plates. Compounds were added to the subconfluent cells at a concentration of 10 μM in DMEM medium for 1 h. Each compound was added in 5 experimental repeats. Cell lysates were prepared with lysis buffer (Millipore) with protease inhibitors (Complete, Roche); the protein concentration in the lysates was determined by the Lowry method. In samples equalized in protein concentration, the active forms of kinase cascades were determined using a Bio-Plex 200 fluorescent analyzer (Bio-Rad).

[2] = system: CREB (pSer133); test: MILLIPLEX MAP 9-Plex, CREB active form in A431 lysates; assay type: cell-based, human; settings: A431 cell lysates, 10 μM, 1 h, M ± mx; control 154.5 ± 34.2
Text: as §1, §2, §3

[3] = system: HCT-116; test: MTT cytotoxicity, HCT-116 colorectal cancer cells; assay type: cell-based, human; settings: 48 h; for IC50: Homo sapiens, HCT-116, adhesive tumor culture
Text: (§4) Cell cultures used in the work: adhesive cultures HBL-100 cells (cells of a normal mammary gland epithelium, immortalized by the SV40 virus and acquired tumorigenicity); MCF-7 breast cancer cells; PC-3 prostate adenocarcinoma cells; HCT-116 colorectal cancer cells; non-small cell lung cancer cells A549; human embryonic kidney cells HEK293; suspension cultures (NCI-H929 and RPMI8226 multiple myeloma cells), K562 chronic myeloid leukemia cells; THP-1 acute monocytic leukemia cells; and Jurkat acute T-cell leukemia cells. We also used several primary cultures of soft tissue sarcomas at 3–4passeges, kindly provided by T.I. Fetisov (The Ethics Committee of N.N. Blokhin NMRCO, protocol code 18-28-09095 and date of approval 28 September 2018).
(§5) Modifications of cell lines: K562/i-S9 is a clone obtained after transfection of K562 cells with the ABCB1 (MDR1) gene-encoding P-glycoprotein [36]. Cells HBL-100/Dox and K562/i-S9_Dox are cells obtained by long-term selection with increasing concentrations of doxorubicin (Sigma-Aldrich, St. Louis, MO, USA) from HBL-100 and K562/i-S9 cells, respectively. MCF-7, A594 cells, and primary cultures of soft tissue sarcomas were cultured in DMEM medium (PanEko, Russia), PC-3 and HCT-116 cells and all suspension cultures in RPMI1640 medium (PanEko, Russia) supplemented with 10% fetal bovine serum (GE Healthcare LifeSciences, USA), and gentamicin at a concentration of 40 μg/mL at 37 °C and 5% CO2.
(§6) Cells MCF-7, PC-3, A549, and HCT-116, and primary cultures of STSwere seeded in 96-well plates, 6 × 10^3 cells per well in 90 μL of culture medium. Suspension cultures were seeded at a concentration of 25 × 10^3 cells per well in 135 μL of medium. The test substances were dissolved in DMSO (Applichem, Council Bluffs, IA, USA) until a concentration of 1 × 10^−^2 M was obtained; for the subsequent dilution of the substances, a serum-free culture medium was used. The next day, for adhesive cultures, and on the same day, for suspension cultures, substances were added to the plates in a volume of 10 μL (adhesive cultures) and 15 μL (suspension cultures) per well at various concentrations; each concentration was added in 3–4 repetitions. The cells were cultured in the presence of substances for 48 h. Then, MTT reagent (PanEko, Moscow, Russia) was added to the wells at a concentration of 5 mg/mL in a volume of 20 μL per well. After 1.5–2 h, the medium with the reagent was removed, and the precipitate of the crystals of formazan was dissolved in 60 μL of DMSO. The optical density was determined using a Multiskan FC spectrophotometer (Thermo Scientific, Waltham, MA, USA) at a wavelength of 540 nm.
(§7) Based on the results of the experiments, a schedule was plotted of the dependence of the percentage of surviving cells (from control) on the concentration of the compound, and the sought concentration IC50 was calculated. The experiments were carried out in 3–4 times.

[4] = system: Jurkat; test: MTT cytotoxicity, Jurkat acute T-cell leukemia cells; assay type: cell-based; settings: Homo sapiens, suspension culture, 48 h
Text: as §4, §5, §6, §7

[5] = system: HBL-100/Dox; test: MTT cytotoxicity, resistant HBL-100/Dox cells; assay type: cell-based, human; settings: for IC50: Homo sapiens, HBL-100, resistant version, MTT, 48 h; for resistance of HBL-100/Dox cells relative to HBL-100: ratio of IC50 values, Table 5
Text: At the next stage, the cytotoxic activity of compounds 1, 2, and 9 (Scheme 2) was investigated on several pairs of cell lines that differ in the expression of P-gp and the method by which they were obtained. […] K562/i-S9_Dox cells were obtained from K562/i-S9 by selection with low concentrations of doxorubicin to increase P-gp expression.
as §5, §6
The experiments were carried out in 3–4 times.

[6] = system: HEK293; test: MTT cytotoxicity, human embryonic kidney cells HEK293; assay type: cell-based; settings: 48 h
Text: as §4, §6, §7

[7] = system: CMT № 1 (Extraskeletal Ewing’s Sarcoma); test: MTT cytotoxicity, primary culture of soft tissue sarcoma CMT № 1; assay type: cell-based; settings: Homo sapiens, 48 h
Text: (§8) It is believed that such cultures have a molecular profile that corresponds more with cells from the human body, in comparison with that of stable cultures of tumor cells (Table 3).
as §4, §5
as §6, with “Then, MTT reagent (PanEko, Moscow, Russia) was added to the wells at a concentration of 5 mg/mL in a volume of 20 μL per well. After 1.5–2 h, the medium with the reagent was removed, and the precipitate of the crystals of formazan was dissolved in 60 μL of DMSO.” left out
(§9) Based on the results of the experiments, a schedule was plotted of the dependence of the percentage of surviving cells (from control) on the concentration of the compound, and the sought concentration IC50 was calculated. […]

[8] = system: CMT № 2 (Malignant Schwannoma); test: MTT cytotoxicity, primary culture of soft tissue sarcoma CMT № 2; assay type: cell-based; settings: Homo sapiens, 48 h
Text: as §8, §4, §5
as §6, with “Then, MTT reagent (PanEko, Moscow, Russia) was added to the wells at a concentration of 5 mg/mL in a volume of 20 μL per well. After 1.5–2 h, the medium with the reagent was removed, and the precipitate of the crystals of formazan was dissolved in 60 μL of DMSO.” left out
as §9

[9] = system: NCI-H929; test: MTT cytotoxicity, NCI-H929 multiple myeloma cells; assay type: cell-based; settings: Homo sapiens, suspension culture, 48 h
Text: as §4, §5, §6, §7

SMILES	p38 (pThr180/pTyr182) fluorescence intensity [1]	increase of fluorescence intensity of the active form p38 [1]	CREB (pSer133) fluorescence intensity [2]	IC50 [3] [µM]	IC50 [4] [nM]	IC50 [5] [µM]	resistance of HBL-100/Dox cells relative to HBL-100 [5]	IC50 [6] [µM]	IC50 [7] [nM]	IC50 [8] [nM]	IC50 [9] [nM]	activation of signaling pathway p38 (pThr180/pTyr182), in words [1]	IC50 value, HCT-116 ([3]; adhesive tumor culture)
C=C1C2=C(C(=O)N1OC)[C@@H](N1CCCC1)[C@@](C)(O)[C@H](CCCCC)O2 [Compound 1]	2349.9 ± 755.5 rel. units	1.5–3 times	329.9 ± 48.4 *↑ rel. units	7.6 ± 0.9	1500 ± 400	7.6 ± 0.6	no difference in resistance	5.1 ± 0.7	2600 ± 1100	2500 ± 900	700 ± 200	–	–
C=C1C2=C(C(=O)N1OC)[C@@H](N(C)C)[C@@](C)(O)[C@H](CCCCC)O2 [Compound 2, (2S,3R,4R)-4-(dimethylamino)-3-hydroxy-6-methoxy-3-methyl-7-methylene-2-pentyl-3,4,6,7-tetrahydropyrano[2,3-c]pyrrol-5(2H)-one]	2795.4 ± 572.0 *↑ rel. units	1.5–3 times	610.0 ± 113.0 *↑ rel. units	4.2 ± 0.2	1100 ± 100	6.6 ± 1.2	no difference in resistance	4.2 ± 0.3	1600 ± 700	1900 ± 500	500 ± 100	maximum degree of activation	–
C=C1C2=C(C(=O)N1OC)[C@@H](N(CCCC)CCCC)[C@@](C)(O)[C@H](CCCCC)O2 [Compound 5, (2S,3R,4R)-4-(dibutylamino)-3-hydroxy-6-methoxy-3-methyl-7-methylene-2-pentyl-3,4,6,7-tetrahydropyrano[2,3-c]pyrrol-5(2H)-one]	1245.9 ± 342.8 rel. units	–	202.1 ± 26.3 rel. units	12 ± 0.9	3700 ± 200	–	–	8.2 ± 0.9	–	–	2900 ± 300	only slightly activated	–
C=C1C2=C(C(=O)N1OC)[C@@H](N(CC)CCO)[C@@](C)(O)[C@H](CCCCC)O2 [Compound 9, (2S,3R,4R)-4-[ethyl(2-hydroxyethyl)amino]-3-hydroxy-6-methoxy-3-methyl-7-methylene-2-pentyl-3,4,6,7-tetrahydropyrano[2,3-c]pyrrol-5(2H)-one]	657.1 ± 287.5 rel. units	1.5–3 times	339.8 ± 53.3 *↑ rel. units	3.9 ± 0.1	1300 ± 400	8.4 ± 0.4	tendency towards a slightly higher resistance	3.8 ± 0.4	2900 ± 1100	4100 ± 1100	600 ± 200	–	–
CCCCC[C@@H]1OC2=C(C(=O)N(OC)/C2=C\n2cnnc2)C(n2cnnc2)[C@@]1(C)O (stereo partly drawn) [Compound 10]	1783.6 ± 181.9 *↑ rel. units	–	584.8 ± 105.5 *↑ rel. units	–	94000 ± 22600	–	–	41 ± 2.1	–	–	5600 ± 700	only slightly activated	not active

Reference: article PMC9030166, “Natural Phaeosphaeride A Derivatives Overcome Drug Resistance of Tumor Cells and Modulate Signaling Pathways” (Pharmaceuticals, 2022)
